Key:
[1] = system: edema induced by carrageen in the rat paw; assay: carrageen rat paw test (Winter), antiinflammatory action; assay type: in vivo, rat (female, CFY strain); conditions: 10 mg/kg oral
[2] = system: ulcers and mucosal edema in the stomach; assay: alcohol ulcer test (Robert), cytoprotective action; assay type: in vivo, Wistar rats; conditions: oral 500 mg/kg, 10 animals
Procedure: The cytoprotective action was tested by the alcohol ulcer test of A. J. E. Robert and coworkers, Am. J. Physiol. […] Liver Physiol. […] Usually, Wistar rats in groups with 10 animals in each are kept without food for 1 day and then treated once through a stomach tube with 1 to 2 ml of anhydrous ethanol which contains 0.5% hydrochloric acid.
After the death of the animals, the length of the resulting ulcers and the size of the resulting mucosal edema in the stomach are measured and compared with control animals not treated with the product. A basic aluminum complex of sucrose polysulfate (sucralfate, see below) was used for comparison.

Molecule: COc1ccc2c(c1)c(CC(=O)O)c(C)n2C(=O)c1ccc(Cl)cc1 [Indomethacin]
- Inhibition in % (of swelling) [1]: 46%

Molecule: Sucralfate
- Inhibition in %, Edema [2]: 79%
- Inhibition in %, Ulcer [2]: 56%

— US4855284A, “Calcium and magnesium complexes of phytohemagglutinin-polyheteroglycans, their preparation and pharmaceutical formulations” (Intex Pharmazeutische Produkte AG, priority 1985, dated 1989)
